Values quoted from earlier work as cited in US7737133B2, “Formulations and methods of treating inflammatory bowel disease” (AGI Therapeutics Ltd., priority 2003, dated 2010).

Experiments:
[1] = reportedly; Ginsberg et al.
[2] = compared with 5-ASA

Row | SMILES | nephrotoxicity [1] | aqueous stability [2] | systemic absorption of 5-ASA or its acetylated form (after cleavage of olsalazine in the colon) | absorbed intact from the gut (olsalazine, conventional powder capsule)
1 | Nc1ccc(C(=O)O)c(O)c1 [Example 4-ASA, 4-aminosalicylic acid] | absence of nephrotoxicity | higher aqueous stability | – | –
2 | O=C(O)c1cc(N=Nc2ccc(O)c(C(=O)O)c2)ccc1O [olsalazine, 5,5′-azo-bis salicylic acid] | – | – | approximately 20% | 2.4%
